From ChEMBL document CHEMBL3045193, “Synthesis and Herbicidal Activity of 1H-2, 3-Benzoxazine Derivatives” (J Pestic Sci, 2002)

Experiments:
Echinochloa crus-galli [1] = experiment: Herbicidal activity against Echinochloa crus-galli (barnyard grass) assessed as killing at 2 kg/ha; type: functional
Digitaria ciliaris [2] = experiment: Herbicidal activity against Digitaria ciliaris assessed as killing at 2 kg/ha; type: functional
Persicaria lapathifolia [3] = experiment: Herbicidal activity against Persicaria lapathifolia assessed as killing at 2 kg/ha; type: functional
Amaranthus viridis [4] = experiment: Herbicidal activity against Amaranthus viridis assessed as killing at 1 kg/ha; type: functional
Amaranthus viridis [5] = experiment: Herbicidal activity against Amaranthus viridis assessed as killing at 2 kg/ha; type: functional
Persicaria lapathifolia [6] = experiment: Herbicidal activity against Persicaria lapathifolia assessed as killing at 1 kg/ha; type: functional
Glycine max [7] = experiment: Toxicity in Glycine max (soybean) assessed as killing at 2 kg/ha by crop selectivity assay; type: organism-based; settings: in vivo
Triticum aestivum [8] = experiment: Toxicity in Triticum aestivum (wheat) plant assessed as killing at 2 kg/ha by crop selectivity assay; type: organism-based; settings: in vivo
Digitaria ciliaris [9] = experiment: Herbicidal activity against Digitaria ciliaris assessed as killing at 1 kg/ha; type: functional
Echinochloa crus-galli [10] = experiment: Herbicidal activity against Echinochloa crus-galli (barnyard grass) assessed as killing at 1 kg/ha; type: functional
Gossypium hirsutum [11] = experiment: Toxicity in Gossypium hirsutum (cotton) assessed as killing at 2 kg/ha by crop selectivity assay; type: organism-based; settings: in vivo
Glycine max [12] = experiment: Toxicity in Glycine max (soybean) assessed as killing at 1 kg/ha by crop selectivity assay; type: organism-based; settings: in vivo
Gossypium hirsutum [13] = experiment: Toxicity in Gossypium hirsutum (cotton) assessed as killing at 1 kg/ha by crop selectivity assay; type: organism-based; settings: in vivo
Triticum aestivum [14] = experiment: Toxicity in Triticum aestivum (wheat) plant assessed as killing at 1 kg/ha by crop selectivity assay; type: organism-based; settings: in vivo

Row | Compound | Activity (Echinochloa crus-galli [1]) [%] | Activity (Digitaria ciliaris [2]) [%] | Activity (Persicaria lapathifolia [3]) [%] | Activity (Amaranthus viridis [5]) [%] | further results
1 | c1ccc(C2=NOCc3ccccc32)cc1 | 0 | 20 | – | – | –
2 | Fc1cccc(C2=NOCc3ccccc32)c1 | 20 | 60 | – | – | –
3 | Brc1cccc(C2=NOCc3ccccc32)c1 | 80 | 100 | – | – | –
4 | Ic1cccc(C2=NOCc3ccccc32)c1 | 60 | 60 | – | – | –
5 | Cc1cccc(C2=NOCc3ccccc32)c1 | 40 | 60 | – | – | –
6 | COc1cccc(C2=NOCc3ccccc32)c1 | 0 | 20 | – | – | –
7 | FC(F)(F)c1cccc(C2=NOCc3ccccc32)c1 | 70 | 90 | – | – | –
8 | Oc1cccc(C2=NOCc3ccccc32)c1 | 0 | 0 | – | – | –
9 | O=[N+]([O-])c1cccc(C2=NOCc3ccccc32)c1 | 40 | 60 | – | – | –
10 | N#Cc1cccc(C2=NOCc3ccccc32)c1 | 20 | 40 | – | – | –
11 | Clc1cccc(C2=NOCc3ccccc32)c1Cl | 0 | 0 | – | – | –
12 | Clc1ccc(C2=NOCc3ccccc32)cc1Cl | 80 | 100 | – | – | –
13 | Clc1cc(Cl)cc(C2=NOCc3ccccc32)c1 | 0 | 0 | – | – | –
14 | Clc1ccc(Cl)c(C2=NOCc3ccccc32)c1 | 0 | 0 | – | – | –
15 | Fc1ccc(C2=NOCc3ccccc32)cc1Cl | 100 | 100 | 100 | 90 | Activity (Amaranthus viridis [4]): 80%; Activity (Persicaria lapathifolia [6]): 100%; Activity (Glycine max [7]): 0%; Activity (Triticum aestivum [8]): 20%; Activity (Digitaria ciliaris [9]): 100%; Activity (Echinochloa crus-galli [10]): 100%; Activity (Gossypium hirsutum [11]): 20%; Activity (Glycine max [12]): 0%; Activity (Gossypium hirsutum [13]): 0%
16 | Fc1cc(C2=NOCc3ccccc32)ccc1Cl | 60 | 90 | – | – | –
17 | Fc1ccc(C2=NOCc3ccccc32)cc1F | 80 | 80 | – | – | –
18 | Fc1ccc(C2=NOCc3ccccc32)cc1Br | 100 | 100 | – | – | –

Row | Compound | Activity (Echinochloa crus-galli [1]) [%] | Activity (Digitaria ciliaris [2]) [%] | Activity (Persicaria lapathifolia [3]) [%] | Activity (Amaranthus viridis [5]) [%] | further results
19 | Fc1ccc(C2=NOCc3ccccc32)cc1C(F)(F)F | 90 | 100 | – | – | –
20 | Fc1ccc2c(c1)C(c1ccc(F)c(Cl)c1)=NOC2 | 60 | 100 | – | – | –
21 | Fc1ccc2c(c1)CON=C2c1ccc(F)c(Cl)c1 | 50 | 100 | – | – | –
22 | Fc1ccc(C2=NOCc3c(F)cccc32)cc1Cl | 60 | 100 | – | – | –
23 | Fc1ccc(C2=NOCc3ccc(Cl)cc32)cc1Cl | 90 | 100 | – | – | –
24 | Fc1ccc(C2=NOCc3cc(Cl)ccc32)cc1Cl | 0 | 60 | – | – | –
25 | Fc1ccc(C2=NOCc3c(Cl)cccc32)cc1Cl | 0 | 0 | – | – | –
26 | Fc1ccc2c(c1)C(c1ccc(F)c(Br)c1)=NOC2 | 100 | 100 | 80 | 100 | Activity (Amaranthus viridis [4]): 80%; Activity (Persicaria lapathifolia [6]): 60%; Activity (Glycine max [7]): 0%; Activity (Triticum aestivum [8]): 20%; Activity (Digitaria ciliaris [9]): 100%; Activity (Echinochloa crus-galli [10]): 100%; Activity (Gossypium hirsutum [11]): 0%; Activity (Glycine max [12]): 0%; Activity (Gossypium hirsutum [13]): 0%
27 | Fc1ccc2c(c1)CON=C2c1ccc(F)c(Br)c1 | 20 | 100 | – | – | –
28 | Clc1ccccc1C1=NOCc2ccccc21 | 0 | 0 | 0 | 0 | –
29 | Clc1cccc(C2=NOCc3ccccc32)c1 | 90 | 100 | 60 | 60 | –
30 | Clc1ccc(C2=NOCc3ccccc32)cc1 | 40 | 20 | 0 | 20 | –
31 | Clc1cc(C2=NOCc3ccccc32)ccn1 | 80 | 60 | 60 | 60 | –
32 | Clc1ccc(C2=NOCc3ccccc32)s1 | 20 | 40 | 20 | 20 | –
33 | Cc1cc(C2=NOCc3ccccc32)no1 | 0 | 0 | 0 | 0 | –
34 | Cc1cc(C2=NOCc3ccccc32)on1 | 0 | 0 | 0 | 0 | –
35 | Cn1ccnc1C1=NOCc2ccccc21 | 0 | 0 | 0 | 0 | –
36 | CCCCCCCC(=O)Oc1c(I)cc(C#N)cc1I [IOXYNIL OCTANOATE] | 90 | 80 | 90 | 100 | Activity (Amaranthus viridis [4]): 100%; Activity (Persicaria lapathifolia [6]): 90%; Activity (Glycine max [7]): 20%; Activity (Triticum aestivum [8]): 0%; Activity (Triticum aestivum [14]): 0%; Activity (Digitaria ciliaris [9]): 80%; Activity (Echinochloa crus-galli [10]): 80%; Activity (Gossypium hirsutum [11]): 0%; Activity (Glycine max [12]): 0%; Activity (Gossypium hirsutum [13]): 0%
